Publication PMC12677599 (Advanced Science, 2025)
Read-outs that look alike come from different tables or passages of the source. Where a SMILES comes first, the peptide text is derived from it. [ ]: non-standard residue; d: D form. The star is where a group is joined. PEG4 = NCCOCCOCCOCCOCCC(=O)O; Piperidide = C1CCN(*)CC1

Key:
[1] = test system: 5-Fluorouracil-resistance H460 cell line; assay type: cell-based; settings: 24 h
Procedure: (§1) MTT assay was conducted as previously described.^[ [44] ^] Tumor cell lines (NCI‐H460, NCI‐H838, HT‐1080, MCF‐7, PC‐3, U‐251‐MG, and U‐87 MG) were seeded in 96‐well plates at a density of 8000 cells per well in a volume of 100 µL and cultured for 24 h. Normal cell lines (HaCaT, HMEC‐1, MRC‐5, and HEK‐293) were seeded in 96‐well plates at a density of 10 000 cells per well in a volume of 100 µL and cultured for 48 h. After that, only tumor cell lines were starved with 100 µL of SFM for a further 4–6 h. Subsequently, cells were treated with 100 µL of compound solutions with different concentrations for 24 h. Cells treated with SFM and 0.5% DMSO in SFM served as blank control and growth control, respectively. Ten µL of MTT solution (5 mg mL^−1) was added to each well, followed by an additional incubation period of 2 h for tumor cells and 4 h for normal cells. Finally, the solvent in each well was swapped with 100 µL of DMSO to dissolve the formazan crystals. The absorbance was measured by the plate reader at 570 nm.
(§2) Wild type H460 cells were cultured in a T‐75 flask and exposed to 30 µM of cisplatin. Cells were passed when the confluency reached 90%. The IC50 value of cisplatin on this cell line was evaluated every two passages. After the IC50 value was higher than 500 µM, the cultured medium was changed to normal CGM, and the cell line was cultured for another three passages. The IC50 value was evaluated again to make sure the resistance was stable. The other three resistance cell lines establishment process was similar. […] Parental NCI‐H460 cells were exposed to 10 µM 5‐fluorouracil, 2.5 µM paclitaxel, or 2.5 µM etoposide to generate 5‐fluorouracil‐resistant, paclitaxel‐resistant, and etoposide‐resistant cell lines, respectively.

[2] = test system: Cisplatin-resistance H460 cell line; assay type: cell-based; settings: 24 h
Procedure: as §1, §2

[3] = test system: Etoposide-resistance (DR-EPT) H460 cell line; assay type: cell-based; settings: 24 h
Procedure: as §1, §2

[4] = test system: Paclitaxel-resistance (DR-PTX) H460 cell line; assay type: cell-based; settings: 24 h
Procedure: as §1, §2

[5] = Compound remaining evaluation in human serum; assay type: in vitro ADME; settings: 37 °C, n = 2
Procedure: Compound solutions (50 µL, 3 mM) were mixed with human serum (50 µL) and incubated for 0, 2, 4, 6, 12, and 24 h at 37 °C. Ethanol (250 µL) was added to precipitate serum proteins, and the samples were centrifuged at 14 000 × g for 20 min at 4 °C. Subsequently, 150 µL of supernatant of each sample was analyzed with analytical HPLC and ESI‐MS/MS. HPLC condition: gradient: 100% solution A to 0% solution A from 0 to 60 min; flow rate: 1 mL min^−1; detector wavelength: 214 nm. Each sample had two replicates.
The compound remaining ratio was calculated as (7) Compoundremaining%=CompoundPeakAreanotat0h/CompoundPeakAreaat0h×100%

erythrocytes = assay type: cell-based; settings: red cells of horse, 2 h
Procedure: Defibrinated horse blood (1 mL) was washed 3 times with 0.9% NaCl solution to remove plasma and then resuspended in 20 mL of 0.9% NaCl solution to obtain a red blood cell (RBC) suspension. Aliquots of the RBC suspension (100 µL) were incubated with 100 µL of compound solutions at concentrations ranging from 100 to 1.5625 µM (twofold serial dilution) for 2 h at 37 °C. RBCs treated with 0.9% NaCl solution and 1% Triton X‐100 solution served as blank and positive controls, respectively. Subsequently, the samples were centrifuged at 900 × g for 10 min, and the absorbance of the supernatant was measured at 570 nm.
The hemolysis ratio was calculated as (2) Hemolysis%=ODSamplegroup−ODBlank/ODPositivegroup−ODBlank×100%

HEK-293 normal cell line = assay: cells; assay type: cell-based; settings: 24 h
Procedure: as §1
(§3) The cell viability was calculated (1) Cellviability%=ODSamplegroup−ODBlank/ODGrowthgroup−ODBlank×100%

H460 cell line [6] = assay: cells; assay type: cell-based; settings: 24 h
Procedure: as §1, §3

H460 cell line [7] = assay type: cell-based; settings: 24 h
Procedure: as §1
The antimicrobial stability evaluation was determined in the presence of physiological concentrations of serum. Twenty five µL of compound solutions with the concentration of 3 mM and 25 µL of human serum were mixed. The mixture was incubated for 0, 2, 4, 6, 12, 24 h at 37 °C and then incubated for 15 min at 60 °C to inactivate the enzymes. […]

HMEC-1 normal cell line = assay type: cell-based; settings: 24 h
Procedure: as §1, §3

HaCaT normal cell line = assay type: cell-based; settings: 24 h
Procedure: as §1, §3

MRC-5 normal cell line = assay type: cell-based; settings: 24 h
Procedure: as §1, §3

[8] = test system: Galleria mellonella larvae; assay: In vivo safety evaluation in G. mellonella larvae
Procedure: G. mellonella larvae (Livefoods Direct Ltd., Yorkshire, UK) were used to assess the in vivo safety of peptides. Experiments were conducted on larvae (250 ± 25 mg) incubated at 37 °C. Ten µL of compound 270 solutions with the final concentrations of 50, 80, and 120 µM were injected into the hemolymph via the second pair of prolegs (counting from the head). Control groups were injected with an equal volume of PBS. Larval survival and body weight were monitored every 1 day for a total of 5 days.

[9] = test system: matrix-metalloproteinase (MMP); assay: MMP cleavage detection in H460 condition medium; assay type: in vitro ADME; settings: 50 µM in condition or control medium, HPLC and MS, n = 2
Procedure: NCI‐H460 cells were seeded in 48‐well plates at a density of 24 000 cells per well in a volume of 300 µL and cultured for 24 h. Afterward, 300 µL of SFM was added to each well followed by a 10 h incubation. Next, the supernatant of each well was transferred to 1.5 mL tubes. The supernatant of control group was incubated at 60 °C for 30 min (control medium) while the supernatant of dosing group (condition medium) had no incubation. […] Last, 150 µL of samples were analyzed by analytical HPLC and ESI‐MS. HPLC condition: gradient: 100% solution A from 0 to 5 min and 100% solution A to 0% solution A from 5 to 65 min; flow rate: 1 mL min^−1; detector wavelength: 214 nm. Each sample had two replicates.

HT-1080 cell line = assay type: cell-based; settings: 24 h
Procedure: as §1, §3

H838 cell line = assay type: cell-based; settings: 24 h
Procedure: as §1, §3

Compound	IC50 [1]	IC50 [2]	IC50 [3]	IC50 [4]	HC10 (concentration causing 10% of erythrocytes lysis) (erythrocytes)	IC50 (HEK-293 normal cell line)	IC50 (H460 cell line [7])	IC50 (HMEC-1 normal cell line)	IC50 (HaCaT normal cell line)	IC50 (MRC-5 normal cell line)	IC50 (HT-1080 cell line)	IC50 (H838 cell line)	also measured
CC[C@H](C)[C@H](NC(=O)[C@H](CCCCN)NC(=O)[C@@H]1CCCN1C(=O)[C@H](CC(C)C)NC(=O)[C@@H](NC(=O)[C@H](CO)NC(=O)[C@H](CCC(=O)N1CCCCC1)NC(=O)[C@H](CC(C)C)NC(=O)[C@H](CC(=O)O)NC(=O)[C@H](CC(=O)O)NC(=O)[C@H](Cc1ccccc1)NC(=O)[C@@H](NC(=O)[C@H](CCCCN)NC(=O)[C@@H]1CCCN1C(=O)[C@H](Cc1ccccc1)NC(=O)[C@H](Cc1ccccc1)NC(=O)[C@H](CCCCN)NC(=O)[C@H](C)N)[C@@H](C)CC)[C@@H](C)CC)C(=O)N[C@@H](CC(C)C)C(=O)NCC(=O)N1CCC[C@H]1C(=O)N[C@@H](CC(C)C)C(=O)NCC(=O)N[C@@H](CC(C)C)C(=O)N[C@@H](C)C(=O)NCC(=O)NCCOCCOCCOCCOCCC(=O)NCCOCCOCCOCCOCCC(=O)NCCOCCOCCOCCOCCC(=O)NCCOCCOCCOCCOCCC(=O)NCCOCCOCCOCCOCCC(=O)NCCOCCOCCOCCOCCC(N)=O [compound 270] (H-AKFFPKIFDDLE(Piperidide)SILPKILGPLGLAG[PEG4][PEG4][PEG4][PEG4][PEG4][PEG4]-NH2)	56.44 ± 0.25 µM	54.7 ± 3.28 µM	28.1 ± 1.42 µM	35.3 ± 1.83 µM	>100 µM	> 100 µM	53.6 ± 2.04 µM	> 100 µM	> 100 µM	> 100 µM	–	–	remaining at 24 h, 1.5 mM ([5]; 50% human serum (50 µL 3 mM compound + 50 µL serum), 24 h, ethanol precipitation, analytical HPLC 214 nm peak area vs 0 h, read-out: remaining ratio in human serum after 24 h): ~100%; inhibition of HEK-293 cells at 100 µM (HEK-293 normal cell line; 100): 40%; IC95 value, H460 (H460 cell line [6]): ≈ 55 µM; larval survival after 5 days, 50 µM ([8]; 10 µL injected into hemolymph, 50 µM, 37 °C, day 5): 77.8%; larval survival after 5 days, 80 µM ([8]; 10 µL injected into hemolymph, 80 µM, 37 °C, day 5): 88.9%; larval survival after 5 days, 120 µM ([8]; 10 µL injected into hemolymph, 120 µM, 37 °C, day 5): 77.8%; melanization of larvae ([8]; 50, 80 or 120 µM, 5 days): No melanization
CC[C@H](C)[C@H](NC(=O)[C@H](CCCCN)NC(=O)[C@@H]1CCCN1C(=O)[C@H](CC(C)C)NC(=O)[C@@H](NC(=O)[C@H](CO)NC(=O)[C@H](CCC(=O)N1CCCCC1)NC(=O)[C@H](CC(C)C)NC(=O)[C@H](CC(=O)O)NC(=O)[C@H](CC(=O)O)NC(=O)[C@H](Cc1ccccc1)NC(=O)[C@@H](NC(=O)[C@H](CCCCN)NC(=O)[C@@H]1CCCN1C(=O)[C@H](Cc1ccccc1)NC(=O)[C@H](Cc1ccccc1)NC(=O)[C@H](CCCCNC(C)=O)NC(=O)[C@H](C)N)[C@@H](C)CC)[C@@H](C)CC)C(=O)N[C@@H](CC(C)C)C(N)=O [239-4-Ac] (H-AK(Ac)FFPKIFDDLE(Piperidide)SILPKIL-NH2)	–	–	–	–	–	–	–	–	–	–	–	–	degradation in human serum, comparison in words ([5]; 50% human serum, HPLC peak area, up to 6 h (239-4-Ac) or 24 h): significantly more prone to degradation
CC[C@H](C)[C@H](NC(=O)[C@H](CCCCN)NC(=O)[C@@H]1CCCN1C(=O)[C@H](CC(C)C)NC(=O)[C@@H](NC(=O)[C@H](CO)NC(=O)[C@H](CCC(=O)N1CCCCC1)NC(=O)[C@H](CC(C)C)NC(=O)[C@H](CC(=O)O)NC(=O)[C@H](CC(=O)O)NC(=O)[C@H](Cc1ccccc1)NC(=O)[C@@H](NC(=O)[C@H](CCCCN)NC(=O)[C@@H]1CCCN1C(=O)[C@H](Cc1ccccc1)NC(=O)[C@@H](N)Cc1ccccc1)[C@@H](C)CC)[C@@H](C)CC)C(=O)N[C@@H](CC(C)C)C(=O)NCC(=O)N1CCC[C@H]1C(=O)N[C@@H](CC(C)C)C(=O)NCC(=O)N[C@@H](CC(C)C)C(=O)N[C@@H](C)C(=O)NCC(=O)NCCOCCOCCOCCOCCC(=O)NCCOCCOCCOCCOCCC(=O)NCCOCCOCCOCCOCCC(=O)NCCOCCOCCOCCOCCC(N)=O [compound 209] (H-FFPKIFDDLE(Piperidide)SILPKILGPLGLAG[PEG4][PEG4][PEG4][PEG4]-NH2)	84.5 ± 4.55 µM	94.3 µM	> 100 µM	97.8 µM	–	98.6 µM	–	> 100 µM	> 100 µM	> 100 µM	86.8 ± 49.1 µM	84.5 ± 5.91 µM	MMP-cleaved product detection / integrity in H460 medium [9]: remained intact; IC50 (H460 cell line [6]): 53.4 µM
CC[C@H](C)[C@H](NC(=O)[C@H](CCCCN)NC(=O)[C@@H]1CCCN1C(=O)[C@H](CC(C)C)NC(=O)[C@@H](NC(=O)[C@H](CO)NC(=O)[C@H](CCC(=O)N1CCCCC1)NC(=O)[C@H](CC(C)C)NC(=O)[C@H](CC(=O)O)NC(=O)[C@H](CC(=O)O)NC(=O)[C@H](Cc1ccccc1)NC(=O)[C@@H](NC(=O)[C@H](CCCCN)NC(=O)[C@@H]1CCCN1C(=O)[C@H](Cc1ccccc1)NC(=O)[C@@H](N)Cc1ccccc1)[C@@H](C)CC)[C@@H](C)CC)C(=O)N[C@@H](CC(C)C)C(N)=O [174-3] (H-FFPKIFDDLE(Piperidide)SILPKIL-NH2)	28.9 ± 3.53 µM	29.2 ± 2.29 µM	17.7 ± 2.86 µM	24.2 ± 2.13 µM	51.52 µM	32.6 µM	23.7 ± 1.03 µM	52.9 ± 7.31 µM	87 µM	95.8 µM	57.6 ± 8.46 µM	39.5 µM	–
